IC50 and EC50 data for 17 compounds are collected here from US20230340011A1 (Asteroid Therapeutics, priority 2022, published 2023).

Bounds are passed on as bounds.

In general, IC50 refers to the concentration that gives 50% inhibition. A low value points to greater potency in that assay.

For one assay, the target named is SREBP-2 (Homo sapiens (Human), UniProt Q12772). Briefly: In vitro assay SREBP-2: PathHunter U2OS SREBP-2 Nuclear Translocation Cell Line, U18666A-stimulated. The following applies: PathHunter U2OS SREBP-2 nuclear translocation cells, U18666A 10 μM, overnight (16 hours). It is filed as cell-based.
In the next assay the target is LXRβ (Homo sapiens (Human), UniProt P55055). Briefly: In vitro assay LXRβ: PathHunter NHR CHO cells, LXRβ / Steroid Receptor Co-activator Peptide enzyme fragment complementation. It is filed as cell-based. The following applies: PathHunter NHR CHO cells, full-length human LXRβ and SRCP, chemiluminescent signal; read-out: LXRβ PPI. The essentials: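 Enzyme fragment complementation read-out: CHO cells stably expressing ProLink-tagged full-length human LXRβ plus nuclear enzyme acceptor–SRCP fusion, seeded and held overnight at 37° C. Medium with charcoal-dextran filtered serum; final vehicle 1%. Chemiluminescence measured after signal generation.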
Chain of LXRβ (P55055 whole entry, the tested form may be a part): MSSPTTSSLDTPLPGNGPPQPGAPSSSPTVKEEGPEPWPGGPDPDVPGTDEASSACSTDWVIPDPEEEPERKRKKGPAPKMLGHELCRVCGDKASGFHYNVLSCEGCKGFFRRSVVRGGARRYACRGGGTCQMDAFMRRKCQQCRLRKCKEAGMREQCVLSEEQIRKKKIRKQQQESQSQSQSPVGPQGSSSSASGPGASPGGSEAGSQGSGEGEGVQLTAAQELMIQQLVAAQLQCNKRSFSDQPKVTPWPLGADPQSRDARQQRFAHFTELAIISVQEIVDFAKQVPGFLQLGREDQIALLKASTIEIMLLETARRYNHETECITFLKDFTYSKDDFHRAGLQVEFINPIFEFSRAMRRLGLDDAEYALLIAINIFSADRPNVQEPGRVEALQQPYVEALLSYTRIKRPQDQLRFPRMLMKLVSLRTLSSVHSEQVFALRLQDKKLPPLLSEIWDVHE

The compound `C[C@H](CCC(=O)N1C[C@@H]2C[C@]2(c2ccccc2)C1)[C@H]1CC[C@H]2[C@@H]3CC=C4C[C@@H](O)CC[C@]4(C)[C@H]3CC[C@]12C` [Example 78, (4R)-4-((3S,8S,9S,10R,13R,14S,17R)-3-hydroxy-10,13-dimethyl-2,3,4,7,8,9,10,11,12,13,14,15,16,17-tetradecahydro-1H-cyclopenta[a]phenanthren-17-yl)-1-(1-phenyl-3-azabicyclo[3.1.0]hexan-3-yl)pentan-1-one] had an IC50 at SREBP-2 of less than 250 nM. For the same compound, the EC50 on LXRβ is 1000 to 10000 nM.

The compound `C[C@H](CCC(=O)N1CCC(F)(F)CC1)[C@H]1CC[C@H]2[C@@H]3CC=C4C[C@@H](O)CC[C@]4(C)[C@H]3CC[C@]12C` [Example 79, (R)-1-(4,4-difluoropiperidin-1-yl)-4-((3S,8S,9S,10R,13R,14S,17R)-3-hydroxy-10,13-dimethyl-2,3,4,7,8,9,10,11,12,13,14,15,16,17-tetradecahydro-1H-cyclopenta[a]phenanthren-17-yl) pentan-1-one] registered an IC50 against SREBP-2 of less than 250 nM. In addition, the EC50 on LXRβ was in the range of 1000 to 10000 nM.

Compound `C[C@H](CCC(=O)N1CCC2(CC1)COC2)[C@H]1CC[C@H]2[C@@H]3CC=C4C[C@@H](O)CC[C@]4(C)[C@H]3CC[C@]12C` [Example 80, (R)-4-((3S,8S,9S,10R,13R,14S,17R)-3-hydroxy-10,13-dimethyl-2,3,4,7,8,9,10,11,12,13,14,15,16,17-tetradecahydro-1H-cyclopenta[a]phenanthren-17-yl)-1-(2-oxa-7-azaspiro[3.5]nonan-7-yl)pentan-1-one] registered an IC50 against SREBP-2 of less than 250 nM. The EC50 at LXRβ was 1000 to 10000 nM.

`C[C@H](CCC(=O)N1CCCOCC1)[C@H]1CC[C@H]2[C@@H]3CC=C4C[C@@H](O)CC[C@]4(C)[C@H]3CC[C@]12C` [Example 81, (R)-4-((3S,8S,9S,10R,13R,14S,17R)-3-hydroxy-10,13-dimethyl-2,3,4,7,8,9,10,11,12,13,14,15,16,17-tetradecahydro-1H-cyclopenta[a]phenanthren-17-yl)-1-(1,4-oxazepan-4-yl)pentan-1-one] registered an IC50 against SREBP-2 of less than 250 nM. On LXRβ, the EC50 lay within 250 to 1000 nM.

Turning to `C[C@H](CCC(=O)N1CCC(C(F)(F)F)CC1)[C@H]1CC[C@H]2[C@@H]3CC=C4C[C@@H](O)CC[C@]4(C)[C@H]3CC[C@]12C` [Example 82, (R)-4-((3S,8S,9S,10R,13R,14S,17R)-3-hydroxy-10,13-dimethyl-2,3,4,7,8,9,10,11,12,13,14,15,16,17-tetradecahydro-1H-cyclopenta[a]phenanthren-17-yl)-1-(4-(trifluoromethyl)piperidin-1-yl)pentan-1-one], the IC50 against SREBP-2 was less than 250 nM. Moreover, the EC50 on LXRβ was more than 10000 nM.

At SREBP-2, `CC(=O)NC1(C)CCN(C(=O)CC[C@@H](C)[C@H]2CC[C@H]3[C@@H]4CC=C5C[C@@H](O)CC[C@]5(C)[C@H]4CC[C@]23C)CC1` [Example 83, N-(1-((R)-4-((3S,8S,9S,10R,13R,14S,17R)-3-hydroxy-10,13-dimethyl-2,3,4,7,8,9,10,11,12,13,14,15,16,17-tetradecahydro-1H-cyclopenta[a]phenanthren-17-yl)pentanoyl)-4-methylpiperidin-4-yl)acetamide] yielded an IC50 of 250 to 1000 nM. Besides, the EC50 at LXRβ is more than 10000 nM.

With `C[C@H](CCC(=O)N1CCC(C)(NS(C)(=O)=O)CC1)[C@H]1CC[C@H]2[C@@H]3CC=C4C[C@@H](O)CC[C@]4(C)[C@H]3CC[C@]12C` [Example 84, N-(1-((R)-4-((3S,8S,9S,10R,13R,14S,17R)-3-hydroxy-10,13-dimethyl-2,3,4,7,8,9,10,11,12,13,14,15,16,17-tetradecahydro-1H-cyclopenta[a]phenanthren-17-yl)pentanoyl)-4-methylpiperidin-4-yl)methanesulfonamide], the half-inhibitory concentration (IC50) at SREBP-2 fell in the range of 250 to 1000 nM. Further, at LXRβ, the EC50 was more than 10000 nM.

For `C[C@H](CCC(=O)N1CCC(C)(C(N)=O)CC1)[C@H]1CC[C@H]2[C@@H]3CC=C4C[C@@H](O)CC[C@]4(C)[C@H]3CC[C@]12C` [Example 85, 1-((R)-4-((3S,8S,9S,10R,13R,14S,17R)-3-hydroxy-10,13-dimethyl-2,3,4,7,8,9,10,11,12,13,14,15,16,17-tetradecahydro-1H-cyclopenta[a]phenanthren-17-yl)pentanoyl)-4-methylpiperidine-4-carboxamide], on SREBP-2, the IC50 is less than 250 nM. At LXRβ, the EC50 is more than 10000 nM.

For `CNC(=O)C1(C)CCN(C(=O)CC[C@@H](C)[C@H]2CC[C@H]3[C@@H]4CC=C5C[C@@H](O)CC[C@]5(C)[C@H]4CC[C@]23C)CC1` [Example 86, 1-((R)-4-((3S,8S,9S,10R,13R,14S,17R)-3-hydroxy-10,13-dimethyl-2,3,4,7,8,9,10,11,12,13,14,15,16,17-tetradecahydro-1H-cyclopenta[a]phenanthren-17-yl)pentanoyl)-N,4-dimethylpiperidine-4-carboxamide], at SREBP-2, the IC50 fell in the range of 250 to 1000 nM. On LXRβ, the EC50 is more than 10000 nM.

Compound `C[C@H](CCC(=O)N1CCC(C)(C(=O)N(C)C)CC1)[C@H]1CC[C@H]2[C@@H]3CC=C4C[C@@H](O)CC[C@]4(C)[C@H]3CC[C@]12C` [Example 87, 1-((R)-4-((3S,8S,9S,10R,13R,14S,17R)-3-hydroxy-10,13-dimethyl-2,3,4,7,8,9,10,11,12,13,14,15,16,17-tetradecahydro-1H-cyclopenta[a]phenanthren-17-yl)pentanoyl)-N,N,4-trimethylpiperidine-4-carboxamide] registered an IC50 on SREBP-2 of 250 to 1000 nM. For the same compound, the EC50 on LXRβ is more than 10000 nM.

Turning to `C[C@H](CCC(=O)N1CCC2(CCCO2)CC1)[C@H]1CC[C@H]2[C@@H]3CC=C4C[C@@H](O)CC[C@]4(C)[C@H]3CC[C@]12C` [Example 88, (R)-4-((3S,8S,9S,10R,13R,14S,17R)-3-hydroxy-10,13-dimethyl-2,3,4,7,8,9,10,11,12,13,14,15,16,17-tetradecahydro-1H-cyclopenta[a]phenanthren-17-yl)-1-(1-oxa-δ-azaspiro[4.5]decan-δ-yl)pentan-1-one], the IC50 against SREBP-2 is less than 250 nM. The EC50 at LXRβ was more than 10000 nM.

`C[C@H](CCC(=O)N1CCC2(CCOC2)CC1)[C@H]1CC[C@H]2[C@@H]3CC=C4C[C@@H](O)CC[C@]4(C)[C@H]3CC[C@]12C` [Example 89, (R)-4-((3S,8S,9S,10R,13R,14S,17R)-3-hydroxy-10,13-dimethyl-2,3,4,7,8,9,10,11,12,13,14,15,16,17-tetradecahydro-1H-cyclopenta[a]phenanthren-17-yl)-1-(2-oxa-δ-azaspiro[4.5]decan-δ-yl)pentan-1-one]: the half-maximal inhibitory concentration (IC50) at SREBP-2 was less than 250 nM. Further, the EC50 on LXRβ is more than 10000 nM.

With `C[C@H](CCC(=O)N1CCC(O)(c2ccccc2)CC1)[C@H]1CC[C@H]2[C@@H]3CC=C4C[C@@H](O)CC[C@]4(C)[C@H]3CC[C@]12C` [Example 91, (R)-4-((3S,8S,9S,10R,13R,14S,17R)-3-hydroxy-10,13-dimethyl-2,3,4,7,8,9,10,11,12,13,14,15,16,17-tetradecahydro-1H-cyclopenta[a]phenanthren-17-yl)-1-(4-hydroxy-4-phenylpiperidin-1-yl) pentan-1-one], on SREBP-2, the IC50 was less than 250 nM. Further, the EC50 at LXRβ is more than 10000 nM.

The compound `COC1CCN(C(=O)CC[C@@H](C)[C@H]2CC[C@H]3[C@@H]4CC=C5C[C@@H](O)CC[C@]5(C)[C@H]4CC[C@]23C)CC1` [Example 94, (R)-4-((3S,8S,9S,10R,13R,14S,17R)-3-hydroxy-10,13-dimethyl-2,3,4,7,8,9,10,11,12,13,14,15,16,17-tetradecahydro-1H-cyclopenta[a]phenanthren-17-yl)-1-(4-methoxypiperidin-1-yl)pentan-1-one] had a half-maximal inhibitory concentration (IC50) at SREBP-2 of less than 250 nM. Besides, at LXRβ, the EC50 fell in the range of 250 to 1000 nM.

Regarding `C[C@H](CCC(=O)N1CC(C(O)(C(F)(F)F)C(F)(F)F)C1)[C@H]1CC[C@H]2[C@@H]3CC=C4C[C@@H](O)CC[C@]4(C)[C@H]3CC[C@]12C` [Example 97, (R)-1-(3-(1,1,1,3,3,3-hexafluoro-2-hydroxypropan-2-yl)azetidin-1-yl)-4-((3S,8S,9S,10R,13R,14S,17R)-3-hydroxy-10,13-dimethyl-2,3,4,7,8,9,10,11,12,13,14,15,16,17-tetradecahydro-1H-cyclopenta[a]phenanthren-17-yl) pentan-1-one], the IC50 against SREBP-2 was less than 250 nM. Moreover, on LXRβ, the EC50 is more than 10000 nM.

On to `C[C@H](CCC(=O)N1CC[C@@H](C(O)(C(F)(F)F)C(F)(F)F)C1)[C@H]1CC[C@H]2[C@@H]3CC=C4C[C@@H](O)CC[C@]4(C)[C@H]3CC[C@]12C` [Example 98, (R)-1-((R)-3-(1,1,1,3,3,3-hexafluoro-2-hydroxypropan-2-yl)pyrrolidin-1-yl)-4-((3S,8S,9S,10R,13R,14S,17R)-3-hydroxy-10,13-dimethyl-2,3,4,7,8,9,10,11,12,13,14,15,16,17-tetradecahydro-1H-cyclopenta[a]phenanthren-17-yl)pentan-1-one], for which, on SREBP-2, the IC50 was less than 250 nM. In addition, the EC50 on LXRβ was more than 10000 nM.

On SREBP-2, `C[C@H](CCC(=O)N1CCC(C(O)(C(F)(F)F)C(F)(F)F)CC1)[C@H]1CC[C@H]2[C@@H]3CC=C4C[C@@H](O)CC[C@]4(C)[C@H]3CC[C@]12C` [Example 99, (R)-1-(4-(1,1,1,3,3,3-hexafluoro-2-hydroxypropan-2-yl)piperidin-1-yl)-4-((3S,8S,9S,10R,13R,14S,17R)-3-hydroxy-10,13-dimethyl-2,3,4,7,8,9,10,11,12,13,14,15,16,17-tetradecahydro-1H-cyclopenta[a]phenanthren-17-yl)pentan-1-one] registered an IC50 of less than 250 nM. The EC50 on LXRβ is more than 10000 nM.
